Source: patent publication US10017550B2, “Mycobacterium tuberculosis porins and toxins and related methods” (priority 2011, dated 2018)
In brackets after ≈: the same amount, converted by molar mass.

Tests used:
[1] = tested on: M. Bovis BCG ΔMtpA; type: cell-based; settings: for Resistance factor: ratio MICΔMtpA/MICwt
[2] = tested on: M. Bovis BCG Wild-type; assay: microbe, parasite or virus in culture; type: cell-based; settings: Mycobacterium tuberculosis variant bovis BCG
[3] = tested on: M. Bovis BCG ΔMtpA + MtpA; type: cell-based
[4] = tested on: M. Bovis BCG ΔMtpA + MspA; type: cell-based
[5] = tested on: ΔMtpA mutant of M. bovis BCG in human monocyte-derived macrophages (HMDM); type: cell-based
[6] = tested on: wild-type M. bovis BCG in human monocyte-derived macrophages (HMDM); type: cell-based
[7] = Channel activity analysis, planar lipid bilayer single channel recording; type: biochemical

## CC1(C)S[C@@H]2[C@H](NC(=O)[C@H](N)c3ccccc3)C(=O)N2[C@H]1C(=O)O [Ampicillin]
[1]
  MIC for M. Bovis BCG ΔMtpA: 960 µg/mL
  increased minimal inhibitory concentration (MIC) / resistance in the ΔMtpA strain: 32 fold
  Resistance factor: 32
[2]; wild-type strain
  MIC: 30 µg/mL (≈ 85.9 µM)
[3]
  MIC for M. Bovis BCG ΔMtpA + MtpA: 60 µg/mL
[4]
  MIC for M. Bovis BCG ΔMtpA + MspA: 60 µg/mL

## O=C(N[C@H](CO)[C@H](O)c1ccc([N+](=O)[O-])cc1)C(Cl)Cl [Chloramphenicol]
[1]
  MIC for M. Bovis BCG ΔMtpA: 64 µg/mL
  increased minimal inhibitory concentration (MIC) / resistance in the ΔMtpA strain: 16 fold
  Resistance factor: 16
[2]; wild-type strain
  MIC: 4 µg/mL (≈ 12.4 µM)
[3]
  MIC for M. Bovis BCG ΔMtpA + MtpA: 8 µg/mL
[4]
  MIC for M. Bovis BCG ΔMtpA + MspA: 8 µg/mL

## O=C(O)c1cn(C2CC2)c2cc(N3CCNCC3)c(F)cc2c1=O [Ciprofloxacin]
[2]
  MIC: 1 µg/mL (≈ 3.02 µM)
[3]
  MIC for M. Bovis BCG ΔMtpA + MtpA: 2 µg/mL
[4]
  MIC for M. Bovis BCG ΔMtpA + MspA: 2 µg/mL

## CC[C@H]1OC(=O)[C@H](C)[C@@H](O[C@H]2C[C@@](C)(OC)[C@@H](O)[C@H](C)O2)[C@H](C)[C@@H](O[C@@H]2O[C@H](C)C[C@H](N(C)C)[C@H]2O)[C@](C)(OC)C[C@@H](C)C(=O)[C@H](C)[C@@H](O)[C@]1(C)O [Clarithromycin]
[1]
  MIC for M. Bovis BCG ΔMtpA: >2 µg/mL
  Resistance factor: >16
[2]; wild-type strain
  MIC: 0.125 µg/mL (≈ 0.167 µM)
[3]
  MIC for M. Bovis BCG ΔMtpA + MtpA: 0.25 µg/mL
[4]
  MIC for M. Bovis BCG ΔMtpA + MspA: 0.5 µg/mL

## CC[C@H]1OC(=O)[C@H](C)[C@@H](O[C@H]2C[C@@](C)(OC)[C@@H](O)[C@H](C)O2)[C@H](C)[C@@H](O[C@@H]2O[C@H](C)C[C@H](N(C)C)[C@H]2O)[C@](C)(O)C[C@@H](C)C(=O)[C@H](C)[C@@H](O)[C@]1(C)O [Erythromycin A]
[1]
  Resistance factor: >16
[2]; wild-type strain
  MIC: 16 µg/mL (≈ 21.8 µM)
[3]
  MIC for M. Bovis BCG ΔMtpA + MtpA: 16 µg/mL
[4]
  MIC for M. Bovis BCG ΔMtpA + MspA: 32 µg/mL

## CC[C@@H](CO)NCCN[C@@H](CC)CO [Ethambutol]
[1]
  MIC for M. Bovis BCG ΔMtpA: >1 µg/mL
  change of resistance / MIC in the ΔMtpA mutant, in words: more than eight-fold
  Resistance factor: >8
[2]; wild-type strain
  MIC: 0.125 µg/mL (≈ 0.612 µM)
[3]
  MIC for M. Bovis BCG ΔMtpA + MtpA: 0.125 µg/mL
[4]
  MIC for M. Bovis BCG ΔMtpA + MspA: 0.125 µg/mL

## NNC(=O)c1ccncc1 [Isoniazid]
[1]
  MIC for M. Bovis BCG ΔMtpA: >1 µg/mL
  change of resistance / MIC in the ΔMtpA mutant, in words: more than eight-fold
  Resistance factor: >4
[2]; wild-type strain
  MIC: 0.25 µg/mL (≈ 1.82 µM)
[4]
  MIC for M. Bovis BCG ΔMtpA + MspA: 0.25 µg/mL

## C[C@H]1COc2c(N3CCN(C)CC3)c(F)cc3c(=O)c(C(=O)O)cn1c23 [Levofloxacin]
[2]; wild-type strain
  MIC: 0.125 µg/mL (≈ 0.346 µM)

## COc1c(N2C[C@@H]3CCCN[C@@H]3C2)c(F)cc2c(=O)c(C(=O)O)cn(C3CC3)c12 [Moxifloxacin]
[2]; wild-type strain
  MIC: 0.5 µg/mL (≈ 1.25 µM)

## CCn1cc(C(=O)O)c(=O)c2cc(F)c(N3CCNCC3)cc21 [Norfloxacin]
[1]
  MIC for M. Bovis BCG ΔMtpA: 4 µg/mL
  Resistance factor: 4
[2]; wild-type strain
  MIC: 1 µg/mL (≈ 3.13 µM)
[3]
  MIC for M. Bovis BCG ΔMtpA + MtpA: 2 µg/mL
[4]
  MIC for M. Bovis BCG ΔMtpA + MspA: 2 µg/mL

## CC1COc2c(N3CCN(C)CC3)c(F)cc3c(=O)c(C(=O)O)cn1c23 (stereo not shown) [Ofloxacin]
[2]; wild-type strain
  MIC: 0.25 µg/mL (≈ 0.692 µM)

## CO[C@H]1/C=C/O[C@@]2(C)Oc3c(C)c(O)c4c(O)c(c(/C=N/N5CCN(C)CC5)c(O)c4c3C2=O)NC(=O)/C(C)=C\C=C\[C@H](C)[C@H](O)[C@@H](C)[C@@H](O)[C@@H](C)[C@H](OC(C)=O)[C@@H]1C [Rifampicin]
[2]
  MIC: 0.008 µg/mL (≈ 0.00972 µM)

## [H]/N=C(/N)N[C@H]1[C@H](O)[C@@H](O)[C@H](O[C@@H]2O[C@@H](C)[C@](O)(C=O)[C@H]2O[C@@H]2O[C@@H](CO)[C@H](O)[C@@H](O)[C@@H]2NC)[C@@H](N/C(N)=N\[H])[C@@H]1O [Streptomycin]
[1]
  MIC for M. Bovis BCG ΔMtpA: 0.64 µg/mL
  Resistance factor: 4
[2]; wild-type strain
  MIC: 0.16 µg/mL (≈ 0.275 µM)
[3]
  MIC for M. Bovis BCG ΔMtpA + MtpA: 0.32 µg/mL
[4]
  MIC for M. Bovis BCG ΔMtpA + MspA: 0.32 µg/mL

## CN(C)[C@@H]1C(O)=C(C(N)=O)C(=O)[C@@]2(O)C(O)=C3C(=O)c4c(O)cccc4[C@@](C)(O)[C@H]3C[C@@H]12 [Tetracycline]
[2]
  MIC: 31.2 µg/mL (≈ 70.3 µM)

## CN[C@H](CC(C)C)C(=O)N[C@H]1C(=O)N[C@@H](CC(N)=O)C(=O)N[C@H]2C(=O)N[C@H]3C(=O)N[C@H](C(=O)N[C@H](C(=O)O)c4cc(O)cc(O)c4-c4cc3ccc4O)[C@H](O)c3ccc(c(Cl)c3)Oc3cc2cc(c3O[C@@H]2O[C@H](CO)[C@@H](O)[C@H](O)[C@H]2O[C@H]2C[C@](C)(N)[C@H](O)[C@H](C)O2)Oc2ccc(cc2Cl)[C@H]1O [Vancomycin]
[1]
  MIC for M. Bovis BCG ΔMtpA: 20 µg/mL
  Resistance factor: 4
[2]
  MIC: 5 µg/mL (≈ 3.45 µM)
[3]
  MIC for M. Bovis BCG ΔMtpA + MtpA: 10 µg/mL
[4]
  MIC for M. Bovis BCG ΔMtpA + MspA: 10 µg/mL

## N[C@@H]1CON=C1O [cycloserine]
[1]
  MIC for M. Bovis BCG ΔMtpA: 8 µg/mL
  Resistance factor: 2
[2]; wild-type strain
  MIC: 4 µg/mL (≈ 39.2 µM)
[3]
  MIC for M. Bovis BCG ΔMtpA + MtpA: 4 µg/mL
[4]
  MIC for M. Bovis BCG ΔMtpA + MspA: 4 µg/mL

## Nc1ccc(C(=O)O)c(O)c1 [p-aminosalicylic acid]
[1]
  MIC for M. Bovis BCG ΔMtpA: >8 µg/mL
  change of resistance / MIC in the ΔMtpA mutant, in words: more than eight-fold
  Resistance factor: >4
[2]; wild-type strain
  MIC: 2 µg/mL (≈ 13.1 µM)
[3]
  MIC for M. Bovis BCG ΔMtpA + MtpA: 2 µg/mL
[4]
  MIC for M. Bovis BCG ΔMtpA + MspA: 2 µg/mL

## γ-interferon: human IFN-γ, induces nitric oxide synthase activity in macrophages
[5]
  survival in treated macrophages compared to untreated cells: no significant difference
[6]
  bacteria recovered from stimulated HMDMs: drastic decrease in bacteria recovered

B1: N-terminal domain of MtpA (aa 49-444): truncated N-terminal domain of MtpA, codon optimized, Strep-, HA- and His-tagged, purified from E. coli (protein, UniProt O05442 49-444, looked up, fragment)
chain: GAVFGRSYDGSAAALVQAMSVARNGLCNLGDGVRMSAHNYSLAEAMSDVAGRAAPLPAPPPSGCVGVGAPPSAVGGGGGAPKGWGWVAPYIGMIWPNGDSTKLRAAAVAWRSAGTQFALTEIQSTAGPMGVIRAQQLPEAGLIESAFADAYASTTAVVGQCHQLAAQLDAYAARIDAVHAAVLDLLARICDPLTGIKEVWEFLTDQDEDEIQRIAHDIAVVVDQFSGEVDALAAEITAVVSHAEAVITAMADHAGKQWDRFLHSNPVGVVIDGTGQQLKGFGEEAFGMAKDSWDLGPLRASIDPFGWYRSWEEMLTGMAPLAGLGGENAPGVVESWKQFGKSLIHWDEWTTNPNEALGKTVFDAATLALPGGPLSKLGSKGRDILAGVRGLKERLE
modifications: Strep, HA and His tags
notes: truncated N-terminal domain of MtpA, codon optimized, Strep-, HA- and His-tagged, purified from E. coli
[7]
  single channel conductance of protein purified from E. coli compared to that purified from M. smegmatis: almost identical

B2: N-terminal domain of MtpA: N-terminal domain (aa 1-444) of MtpA (Rv3903c), HA- and His-tagged, expressed in and purified from M. smegmatis (protein, UniProt O05442 1-444, looked up, fragment)
chain: MAPLAVDPAALDSAGGAVVAAGAGLGAVISSLTAALAGCAGMAGDDPAGAVFGRSYDGSAAALVQAMSVARNGLCNLGDGVRMSAHNYSLAEAMSDVAGRAAPLPAPPPSGCVGVGAPPSAVGGGGGAPKGWGWVAPYIGMIWPNGDSTKLRAAAVAWRSAGTQFALTEIQSTAGPMGVIRAQQLPEAGLIESAFADAYASTTAVVGQCHQLAAQLDAYAARIDAVHAAVLDLLARICDPLTGIKEVWEFLTDQDEDEIQRIAHDIAVVVDQFSGEVDALAAEITAVVSHAEAVITAMADHAGKQWDRFLHSNPVGVVIDGTGQQLKGFGEEAFGMAKDSWDLGPLRASIDPFGWYRSWEEMLTGMAPLAGLGGENAPGVVESWKQFGKSLIHWDEWTTNPNEALGKTVFDAATLALPGGPLSKLGSKGRDILAGVRGLKERLE
modifications: HA and His tags
notes: N-terminal domain (aa 1-444) of MtpA (Rv3903c), HA- and His-tagged, expressed in and purified from M. smegmatis
[7]
  most frequent (main) single channel conductance: 4.0±0.2 nS
